Test results as given in PubChem BioAssay (NCI).
“And” between values parts separate entries of the source, which are not always exact repeats. Equal values may be shown once.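 Cultured in 96-well plates, cells were exposed to test compound for 48 hours across five concentrations. At the GI50, growth is halved. TGI: total growth inhibition.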

Legend:
Test in all cases: NCI tumour cell line growth inhibition, 48 h
HT29 colon = system: HT29 colon
COLO 205 colon = system: COLO 205 colon
MCF7 breast = system: MCF7 breast
HCT-15 colon = system: HCT-15 colon
SN12C renal = system: SN12C renal
NCI-H23 lung = system: NCI-H23 lung
TK-10 renal = system: TK-10 renal
K-562 leukemia = system: K-562 leukemia
UACC-257 melanoma = system: UACC-257 melanoma
U251 CNS = system: U251 CNS

Compound | GI50 (HT29 colon) | TGI (HT29 colon) | GI50 (COLO 205 colon) | TGI (COLO 205 colon) | GI50 (MCF7 breast) | TGI (MCF7 breast) | GI50 (HCT-15 colon) [µM] | TGI (HCT-15 colon) | GI50 (SN12C renal) | TGI (SN12C renal) | GI50 (NCI-H23 lung) | TGI (NCI-H23 lung) [µM] | GI50 (TK-10 renal) | TGI (TK-10 renal) [µM] | GI50 (K-562 leukemia) | TGI (K-562 leukemia) | GI50 (UACC-257 melanoma) | TGI (UACC-257 melanoma) | GI50 (U251 CNS) | TGI (U251 CNS)
Cc1cc(C#Cc2ccc(C(C)(C)C)cc2)ccc1-n1c(/C=C/c2ccc(O)cc2O)nc2ccccc2c1=O | 2.08 µM | 5.27 µM | 3.02 µM | 9.59 µM | 2.39 µM | 9.06 µM | 2.74 | 10.2 µM | 1.88 µM | 4.13 µM | 2.42 µM | 6.8 | 3.82 µM | 12.8 | 3.28 µM | 14.1 µM | 6.92 µM | 20.4 µM | 2.11 µM | 6.03 µM
O=C(O)Cc1cccnc1 |  | > 100 µM |  | > 100 µM |  | > 100 µM |  | > 100 µM |  | > 100 µM |  | > 100 |  | > 100 |  | > 100 µM |  | > 100 µM |  | > 100 µM
Cc1cccc2c3c(sc12)C(c1ccc(Cl)cc1)C(C#N)=C(N)O3 (centres undefined) | 0.394 µM | 6.12 µM | 0.435 µM | 4.52 µM | 0.257 µM | 4.64 µM | 0.374 | 2.81 µM | 0.544 µM | 11.2 µM | 0.436 µM | 10.4 | 5.92 µM | 21.7 | 0.285 µM | 14.2 µM | 11.8 µM | 27.3 µM | 0.408 µM | 11 µM
O=C(O)CCC(=O)c1ccc2sc3ccccc3c2c1 |  | > 100 µM |  | > 100 µM |  | > 100 µM |  | > 100 µM |  | > 100 µM |  | > 100 |  | > 100 |  | > 100 µM |  | > 100 µM |  | > 100 µM
O=C1OC(C(O)CO)C(O)=C1O (centres undefined) | 2000 µM and 1870 µM | 4070 µM and 3750 µM | 2030 µM and 1830 µM | 3750 µM and 3420 µM | 233 µM and 489 µM | 502 µM and 1100 µM | 1860 | 3450 µM and 3870 µM | 1460 µM and 1540 µM | 2810 µM and 3070 µM | 2920 µM and > 4420 µM | > 10000 | 9040 µM and > 4840 µM | > 10000 | 378 µM and 337 µM | 1460 µM and 1210 µM | 1870 µM and > 3610 µM | 3730 µM and > 5150 µM | 1910 µM and 1840 µM | 3400 µM and 3550 µM
CCC1(O)C(=O)OCc2c1cc1n(c2=O)Cc2cc3c(NC(=O)CN)cccc3nc2-1 (centres undefined) |  | > 79.3 µM | 5 µM | 46.6 µM | 0.181 µM | > 43.2 µM | 5.22 | > 100 µM | 0.102 µM | 10.1 µM | 0.27 µM | 2.58 | 38.7 µM | > 97.6 | 1.07 µM | > 100 µM | 2.09 µM | 24.3 µM | 0.16 µM | 12.1 µM
COC(=O)c1cc2c(cc1Cl)SC1=NN(C)C(N(C)C)N1S2(=O)=O (centres undefined) | > 100 µM | > 100 µM | > 100 µM | > 100 µM | > 100 µM | > 100 µM | > 100 | > 100 µM | > 100 µM | > 100 µM | > 100 µM | > 100 | > 100 µM | > 100 | > 100 µM | > 100 µM | > 100 µM | > 100 µM | > 100 µM | > 100 µM
